Results reported in US6699877B2 (Gruenenthal GmbH, priority 2000, dated 2004).

Target: T1, glycine binding site of the NMDA receptor channel (Rattus norvegicus, UniProt P35439)
T1 construct: from tissue; host or cells: rat brain cortex and hippocampus membrane homogenate
Assay: Receptor binding, displacement of (3H)-MDL 105.519 on rat cerebral membrane homogenates
Conditions: 10 μmol/l test substance; 1 nmol/l (3H)-MDL 105.519; read-out: Displacement (%, 10 μmol/l) of radioactive ligand from specific binding
Description: Receptor Binding (Glycine Binding Site of the NMDA Receptor Channel)
Experiments to determine the affinity of the compounds according to the invention of Formula I to the glycine binding site of the NMDA receptor channel were carried out on cerebral membrane homogenates (homogenate of Cortex- and Hippocampus-Areal from the brain of male rats, Wistar strain) (B. M. Baron, B. W. Siegel, B. L. Harrison, R. S. Gross, C. and P. Towers, Journal of Pharmacology and Experimental Therapeutics, Vol. 279, p. 62, 1996).
For this purpose, Cortex and Hippocampus from freshly removed rats' brains were dissected, homogenized in 5 mmol/l TRIS-acetate buffer, 0.32 mol/l sacharose pH 7.4 (10 ml/g fresh weight) with a Potter homogenizer (made by Braun/Melsungen, 10 piston strokes at 500 rpm) while cooling with ice and subsequently centrifuged for 10 minutes at 1,000 g and 4° C. The first supernatant material was collected and the sediment homogenized again with […] TRIS-acetate buffer, 0.32 mol/l safcharose pH 7.4 (5 ml/g original fresh weight) using the Potter homogenizer (10 piston strokes at 500 rpm) while cooling with ice and centrifuged for 10 minutes at 1,000 g and 4° C. The resultant supernatant material was combined with the supernatant material from the first centrifugation and centrifuged at 17,000 g for 20 minutes at 4° C. The supernatant material after this centrifugation was discarded, the membrane sediment taken up with 5 mmol/l TRIS-acetate buffer pH 8.0 (20 ml/g original fresh weight) and homogenized with 10 piston strokes at 500 rpm.
The membrane homogenate was then incubated for 1 hour at 4° C. and centrifuged for 30 minutes at 50,000 g and 4° C. The supernatant material was discarded and the centrifuge tube with the membrane sediment sealed with parafilm and frozen for 24 hours at −20° C. The membrane sediment was thawed on the following day, taken up with ice-cold 5 mmol/l TRIS-acetate buffer, 0.1% saponin (w/v) pH 7.0 (10 ml/g original fresh weight), homogenized with 10 piston strokes at 500 rpm and subsequently centrifuged for 20 minutes at 50,00 g and 4° C. The resultant supernatant material was discarded, the sediment taken up in a small volume with 5 mmol/l TRIS-acetate buffer pH 7.0 (about 2 ml/g original fresh weight) and homogenized again with 10 piston strokes at 500 rpm. After determining the protein content, the membrane homogenate was adjusted to a protein concentration of 10 mg protein/ml using 5 mmol/l TRIS-acetate buffer pH 7.0 and frozen in aliquots for testing.
For the receptor binding test, aliquots were thawed, diluted 1:10 with 5 mmol/l TRIS-acetate buffer pH 7.0, homogenized with 10 piston strokes at 500 rpm using the potter homogenizer (10 piston strokes at 500 rpm) while cooling with ice and centrifuged for 60 minutes at 55,000 g at 4° C. The supernatant material was decanted, the membrane sediment adjusted to a protein concentration of 1 mg/ml with ice-cold 50 mmol/l TRIS-acetate buffer pH 7.0, homogenized again with 10 piston strokes at 500 rpm and kept in suspension in the ice bath while stirring on a magnetic stirrer. 100 μl of this membrane homogenate per 1 ml of feedstock was used in each case in the receptor binding test (0.1 mg protein/ml in the final batch).
In the binding test, 50 mmol/l TRIS-acetate buffer pH 7.0 was used as buffer and 1 nmol/l (^3H)-MDL 105.519 (B. M. Baron et al 1996) was used as radioactive ligand. The proportion of unspecific binding was determined in the presence of 1 mmol/l glycine.
In further batches, the compounds according to the invention were added in concentration series and the displacement of the radioactive ligand from its specific binding to the glycine binding site of the NMDA receptor channel determined. The respective triple batches were incubated for 120 minutes at 4° C. and then harvested to determine the radioactive ligands bound to the membrane homogenate by filtration through glass fiber filter mats (GF/B). […]

inhibition at 10 µM [%] | SMILES
21 | CCOC(=O)C1Nc2cc(Cl)cc(Cl)c2C(c2ccccc2)C1C (centres unmarked) [Example 42, 5,7-dichloro-3-methyl-4-phenyl-1,2,3,4-tetrahydroquinoline-2-carboxylic Acid Ethyl Ester]
21 | CCOC(=O)C1CC(c2ccc(F)cc2)c2cc(Cl)ccc2N1 (centres unmarked) [Example 51, 6-chloro-4-(4-fluorophenyl)-1,2,3,4-tetrahydroquinoline-2-carboxylic Acid Ethyl Ester]
22 | CCOC(=O)C1CC(c2ccccc2Cl)c2cc(Cl)ccc2N1 (centres unmarked) [Example 52, 6-chloro-4-(2-chlorophenyl)-1,2,3,4-tetrahydroquinoline-2-carboxylic Acid Ethyl Ester]
22 | CCOC(=O)C1CC(c2ccccc2Br)c2cc(Cl)ccc2N1 (centres unmarked) [Example 54, 6-chloro-4-(2-bromophenyl)-1,2,3,4-tetrahydroquinoline-2-carboxylic Acid Ethyl Ester]
14 | CCOC(=O)C1Nc2cc(Cl)cc(Cl)c2C2CCCC12 (centres unmarked) [Example 59, 7,9-dichloro-2,3,3a,4,5,9b-hexahydro-1H-cyclopenta[c]quinoline-4-carboxylic Acid Ethyl Ester]
23 | CCOC(=O)C1Nc2cc(Cl)cc(Cl)c2C2C3CCC(C3)C12 (centres unmarked) [Example 60, 1,3-dichloro-7,10-methano-5,6,6a,7,8,9,10,10a-octahydrophenanthridine-6-carboxylic Acid Ethyl Ester]
15 | CCOC(=O)C1Nc2cc(Cl)cc(Cl)c2C2c3ccccc3CC12 (centres unmarked) [Example 61]
66 | O=C(O)C1CC(c2ccc3ccccc3c2)c2cc(F)cc(Cl)c2N1 (centres unmarked) [Example 81, 8-chloro-6-fluoro-4-naphthalene-2-yl-1,2,3,4-tetrahydroquinoline-2-carboxylic acid]
96 | COc1ccc(C2c3cc(Oc4ccccc4)ccc3NC(C(=O)O)C2C)cc1 (centres unmarked) [Example 82, 4-(4-methoxyphenyl)-3-methyl-6-phenoxy-1,2,3,4-tetrahydroquinoline-2-carboxylic acid]
93 | Cc1cccc(C2CC(C(=O)O)Nc3c(F)cc(Cl)cc32)c1 (centres unmarked) [Example 83, 6-chloro-8-fluoro-4-m-tolyl-1,2,3,4-tetrahydroquinoline-2-carboxylic acid]
79 | Cc1cccc(C2CC(C(=O)O)Nc3c(Cl)cc(F)cc32)c1 (centres unmarked) [Example 84, 8-chloro-6-fluoro-4-m-tolyl-1,2,3,4-tetrahydroquinoline-2-carboxylic acid]
61 | O=C(O)C1CC(c2ccc(Br)cc2)c2cc(Cl)cc(F)c2N1 (centres unmarked) [Example 85, 4-(4-bromophenyl)-6-chloro-8-fluoro-1,2,3,4-tetrahydroquinoline-2-carboxylic acid]
33 | Cc1ccc(C2CC(C(=O)O)Nc3c2ccc(Cl)c3Cl)c(C)c1 (centres unmarked) [Example 86, 7,8-dichloro-4-(2,4-dimethylphenyl)-1,2,3,4-tetrahydroquinoline-2-carboxylic acid]

Second part, the compound before the results:

SMILES | inhibition at 10 µM [%]
CCOC(=O)C1CC(c2ccccc2)c2c(Cl)cc(Cl)cc2N1 (centres unmarked) [Example 14, 5,7-dichloro-4-phenyl-1,2,3,4-tetrahydroquinoline-2-carboxylic Acid Ethyl Ester] | 38
O=C(O)C1CC(c2ccccc2)c2c(Cl)cc(Cl)cc2N1 (centres unmarked) [Example 15, 5,7-dichloro-4-phenyl-1,2,3,4-tetrahydroquinoline-2-carboxylic Acid] | 75
CCOC(=O)C1CC(c2ccccc2C)c2c(Cl)cc(Cl)cc2N1 (centres unmarked) [Example 16, 5,7-dichloro-4-o-tolyl-1,2,3,4-tetrahydroquinoline-2-carboxylic Acid Ethyl Ester] | 35
CCOC(=O)C1CC(c2cccc(C)c2)c2c(Cl)cc(Cl)cc2N1 (centres unmarked) [Example 17, 5,7-dichloro-4-m-tolyl-1,2,3,4-tetrahydroquinoline-2-carboxylic Acid Ester] | 21
Cc1cccc(C2CC(C(=O)O)Nc3cc(Cl)cc(Cl)c32)c1 (centres unmarked) [Example 18, 5,7-dichloro-4-m-tolyl-1,2,3,4-tetrahydroquinoline-2-carboxylic Acid] | 51
CCOC(=O)C1CC(c2ccc(C)cc2)c2c(Cl)cc(Cl)cc2N1 (centres unmarked) [Example 19, 5,7-dichloro-4-p-tolyl-1,2,3,4-tetrahydroquinoline-2-carboxylic Acid Ethyl Ester] | 26
Cc1ccc(C2CC(C(=O)O)Nc3cc(Cl)cc(Cl)c32)cc1 (centres unmarked) [Example 20, 5,7-dichloro-4-p-tolyl-1,2,3,4-tetrahydroquinoline-2-Carboxylic Acid] | 61
CCOC(=O)C1CC(c2ccc(C)cc2C)c2c(Cl)cc(Cl)cc2N1 (centres unmarked) [Example 21, 5,7-dichloro-4-(2,4-dimethylphenyl)-1,2,3,4-tetrahydroquinoline-2-carboxylic Acid Ethyl Ester] | 26
Cc1ccc(C2CC(C(=O)O)Nc3cc(Cl)cc(Cl)c32)c(C)c1 (centres unmarked) [Example 22, 5,7-dichloro-4-(2,4-dimethylphenyl)-1,2,3,4-tetrahydroquinoline-2-carboxylic Acid] | 68
O=C(O)C1CC(c2ccccc2F)c2c(Cl)cc(Cl)cc2N1 (centres unmarked) [Example 27, 5,7-dichloro-4-(2-fluorophenyl)-1,2,3,4-tetrahydroquinoline-2-carboxylic Acid] | 75
CCOC(=O)C1CC(c2cccc(F)c2)c2c(Cl)cc(Cl)cc2N1 (centres unmarked) [Example 28, 5,7-dichloro-4-(3-fluorophenyl)-1,2,3,4-tetrahydroquinoline-2-carboxylic Acid Ethyl Ester] | 35
O=C(O)C1CC(c2cccc(F)c2)c2c(Cl)cc(Cl)cc2N1 (centres unmarked) [Example 29, 5,7-dichloro-4-(3-fluorophenyl)-1,2,3,4-tetrahydroquinoline-2-carboxylic Acid] | 78
CCOC(=O)C1CC(c2ccc(F)cc2)c2c(Cl)cc(Cl)cc2N1 (centres unmarked) [Example 30, 5,7-dichloro-4-(4-fluorophenyl)-1,2,3,4-tetrahydroquinoline-2-carboxylic Acid Ethyl Ester] | 32
O=C(O)C1CC(c2ccc(F)cc2)c2c(Cl)cc(Cl)cc2N1 (centres unmarked) [Example 31, 5,7-dichloro-4-(4-fluorophenyl)-1,2,3,4-tetrahydroquinoline-2-carboxylic Acid] | 58
O=C(O)C1CC(c2ccccc2Cl)c2c(Cl)cc(Cl)cc2N1 (centres unmarked) [Example 32, 5,7-dichloro-4-(2-chlorophenyl)-1,2,3,4-tetrahydroquinoline-2-carboxylic Acid] | 92
CCOC(=O)C1CC(c2ccccc2Br)c2c(Cl)cc(Cl)cc2N1 (centres unmarked) [Example 36, 4-(2-bromophenyl)-5,7-dichloro-1,2,3,4-tetrahydroquinoline-2-carboxylic Acid Ethyl Ester] | 46
O=C(O)C1CC(c2cccc(Br)c2)c2c(Cl)cc(Cl)cc2N1 (centres unmarked) [Example 38, 4-(3-bromophenyl)-5,7-dichloro-1,2,3,4-tetrahydroquinoline-2-carboxylic Acid] | 72
O=C(O)C1CC(c2ccc(Br)cc2)c2c(Cl)cc(Cl)cc2N1 (centres unmarked) [Example 40, 4-(4-bromophenyl)-5,7-dichloro-1 ,2,3,4-tetrahydroquinoline-2-carboxylic Acid] | 70
CCOC(=O)C1CC(c2cccc(C(F)(F)F)c2)c2c(Cl)cc(Cl)cc2N1 (centres unmarked) [Example 41, 5,7-dichloro-4-(3-trifluoromethylphenyl)-1,2,3,4-tetrahydroquinoline-2-carboxylic Acid Ethyl Ester] | 38
